{"source": "patent US20030148285A1", "about": "“Mammalian SIMP protein, gene sequence and uses thereof in cancer therapy” (priority 2001, published 2003)", "key": {"[1]": {"tested_on": "B6^dom1-specific T-cells (C3H.SW target cells coated with synthetic peptides)", "settings": "previously shown; cited from earlier work"}, "[2]": {"tested_on": "B6^dom1-specific T-cells (C3H.SW target cells coated with synthetic peptides)", "assay": "51Cr release cytotoxicity assay: peptide recognition by C3H.SW anti-C57BL/6 CTLs", "format": "cell-based, mouse", "settings": "effector to target ratio 50:1, FIG. 1", "procedure": "Cytotoxic activity was assessed in a standard ^51Cr release assay (Pion et al., 1997. Eur. J. Immunol. 27:421-430). Target blast cells, prepared by culturing C3H.SW spleen cells (3×10^6/ml) with 5 μg/ml of Concanavalin A (Con A; Sigma Chemical Co., St-Louis, Mo.) for 48 hours, were labeled with 100 μCi Na2^51Cr (Dupont Co., Wilmington, Del.) for 90 minutes, sensitized with synthetic peptides for 90 minutes, then mixed with C3H.SW anti-C57BL/6 effector cells at a 50:1 effector to target ratio. Cells were then incubated for 4 hours at 37° C. in a humidified atmosphere of 5% CO2. Afterwards, supernatants were harvested and counted in a gamma counter. All tests were done in triplicate. Spontaneous release was below 15%. Results are expressed as a percentage of specific lysis calculated as follows: % specific lysis=100×(experimental release−spontaneous release)/(maximum release−spontaneous release)."}}, "data": [{"sequence": "AAPDNRETF", "values": [{"measurement": "Recognition by B6^dom1-specific T-cells", "setting": "[1]", "value": "recognised by B6^dom1-specific T-cells"}]}, {"sequence": "KAPDNRDTL [synthetic peptide; product of the putative B6^dom1 allele found in B6^dom1− strains of mice]", "values": [{"measurement": "Recognition by B6^dom1-specific CTLs (specific lysis of peptide-coated C3H.SW targets)", "setting": "[2]; peptide even at 10^−5 M", "value": "not recognised"}]}, {"sequence": "KAPDNRETL [synthetic peptide]", "values": [{"measurement": "Recognition by B6^dom1-specific CTLs (specific lysis of peptide-coated C3H.SW targets)", "setting": "[2]; peptide at 10^−8 M", "value": "recognised more efficiently than the AAPDNRETF peptide"}]}]}
